The values that follow come from patent US20150057375A1, “USE OF IMPROVED N-ALKYL PYRROLIDONE SOLVENT” (TAMINCO, priority 2012, published 2015).

Series [1] deals with female Han Wistar rat (embryo and foetus). Nature of the series: Screening study of effects on development of the embryo and foetus after gavage of pregnant rats (similar to OECD 422). The class given is in vivo. As to conditions: for Bone and cartilage abnormalities and variations / ossification and supernumerary ribs; test item-related effects in the foetuses / Weights of the foetuses: 100 mg/kg body weight/day to dams. The protocol: The purpose of this study was to detect effects of 4 test items or compounds on the development of the embryo and foetus consequent to exposure of the female Han Wistar rat to the test items from day 6 post coitum (implantation) to day 20 post coitum (the day prior to Caesarean section). Particular attention was given to the foetal skeleton. Each group received one test compound, at a dose level of 100 or 500 mg/kg/day. The results were compared to a negative control group, which were administered distilled water (Aqua dest.).
Each group consisted of 5 mated females, treated by gavage, once daily as follows:
A standard dose volume of […] body weight with a daily adjustment to the actual body weight was used.
The foetuses were removed from the uterus, sexed, weighed individually, examined for gross external abnormalities, sacrificed by a subcutaneous injection of sodium pentobarbital, eviscerated and with the exception of over the paws, the skin was removed and discarded. Carcasses were processed through solutions of ethanol, glacial acetic acid with Alcian blue (for cartilage staining), potassium hydroxide with Alizarin red S (for clearing and staining ossified bone) and aqueous glycerine for preservation and storage. The skeletons were examined and all abnormal findings and variations were recorded.

For series [2] the following is noted: EU classification / screening test; cited from earlier work.
A further series deals with rat. To be noted: in vivo; cited from earlier work.
[3] abbreviates: 100 mg/kg body weight/day, gavage.
The mark [4] stands for this setting: 500 mg/kg body weight/day to dams.
Setting [5] is: 500 mg/kg body weight/day, gavage.
The mark [6] stands for this setting: 500 mg/kg body weight/day, gavage once daily, day 6-20 post coitum, 5 mated females per group.

“Also recorded” adds a separate entry of the source.

As for `CCCCN1CCCC1=O` [N-n-butylpyrrolidone], in series [1], the “Bone and cartilage abnormalities and variations / ossification and supernumerary ribs; test item-related effects in the foetuses” value is “no test item-related findings; also recorded: No test item-related effects”; the “Weights of the foetuses” value is “not affected”. In addition, in series [1] (setting [3]), the “Maternal mean body weight, body weight gain and corrected body weight gain” value was “No effects”; the “Maternal mean food consumption vs control group” value is “No effects; also recorded: not considered to have been affected”. Also, the “Bedding in the mouth (females affected)” value in series [1] (100 mg/kg body weight/day, gavage once daily, day 6-20 post coitum, 5 mated females per group) is given as “one female”.
With `CCCN1CCCC1=O` [N-n-propylpyrrolidone], in series [1] (setting [4]), the “Incidence of non-ossified cervical vertebral bodies and supernumerary ribs in foetuses” value is “slightly increased incidence”; the “Incidence of zygomatic arch fusion in the skull of foetuses” value is reported as “increased incidence”; the “Weights of the foetuses (male and female)” value is recorded as “statistically significantly reduced”. Moreover, in series [1] (setting [5]), the “Maternal absolute body weight” value is “at no time statistically significantly reduced”; the “Maternal body weight gain” value was “statistically significantly reduced”; the “Maternal corrected body weight gain” value was “reduced without statistical significance”; the “Maternal food consumption at start of treatment, days 6-9 p.c.” value is “statistically significantly reduced”. In addition, the “Bedding in the mouth (females/dams affected)” value in series [1] (setting [6]) was “all females”. In addition, the “Mean food consumption compared to the control group” value in series [1] (500 mg/kg body weight/day, treatment period days 6-21 p.c.) was −9.1%. The “Maternal corrected body weight gain” value in series [1] (500 mg/kg body weight/day, control group 11.1%) turned out to be 7.6%. Moreover, the “Maternal body weight gain over the treatment period” value in series [1] (500 mg/kg body weight/day, control group 49%) is reported as 36%.
For the compound `CC1CCC(=O)N1C` (centres unmarked) [DMP, 1,5-dimethylpyrrolidone], the Reprotoxicity entry in series [2] was “suspected as being reprotoxic”.
For the compound `CC(C)N1CCCC1=O` [N-isopropylpyrrolidone], in series [1] (setting [4]), the “Incidence of cervical ribs in foetuses” value was “clearly increased incidence”, the “Incidence of zygomatic arch fusion in the skull of foetuses” value was “slightly increased”, the “Incompletely ossified cranial structures in foetuses” value is on record as “slightly increased” and the “Number of foetuses per dam” value is “decreased”. Also, in series [1] (setting [4]), the “Post-implantation loss and embryonic resorptions” value was “increased”; the “Weights of the foetuses (male and female)” value is recorded as “statistically significantly reduced”. Moreover, in series [1] (setting [5]), the “Maternal absolute body weight” value is “did not have a clear effect”; the “Maternal body weight gain” value is listed as “statistically significantly reduced”; the “Maternal corrected body weight gain” value was “reduced but not statistically significantly”; the “Maternal food consumption at start of treatment, days 6-9 p.c.” value is reported as “decreased slightly”. Besides, the “Maternal mean food consumption after days 6-9 p.c. / overall vs control group” value in series [1] (setting [5]) was “recovered thereafter”. The “Bedding in the mouth (females/dams affected)” value in series [1] (setting [6]) is reported as 4.
On to `CN1CCCC1=O` [NMP, N-methylpyrrolidone], for which the Reprotoxicity result in series [2] is “reprotoxic category 2”. The “Toxicity, LD50 oral rat” value with rat is on record as 3914 mg/kg.
Consider `CC(C)CN1CCCC1=O` [N-isobutylpyrrolidone], for which, in series [1], the “Bone and cartilage abnormalities and variations / ossification and supernumerary ribs; test item-related effects in the foetuses” value was “no test item-related findings; also recorded: No test item-related effects”; the “Weights of the foetuses” value is “not affected”. Besides, in series [1] (setting [3]), the “Maternal mean body weight, body weight gain and corrected body weight gain” value was “no effects; also recorded: not affected”; the “Maternal mean food consumption vs control group” value was “no effects”.
